Experimental data as given in US20070197543A1, “Use of derivatives of 2, 5-dihydroxyb enzene-sulphonic acids in the elaboration of a medicinal product to enhance the effect of other drugs used for the treatment of erectile dysfunction” (Laboratorios del Dr. Esteve, S.A., priority 2001, published 2007).

Tests used:
[1] = tested on: resistance arteries of the human penis; assay: Relaxation of noradrenaline-contracted human penile resistance arteries induced by sodium nitroprussiate (myograph); conditions: 10 μM; arteries contracted with 1 μM noradrenaline; FIG. 1
Method: (§1) To study the enhancing effect of medicinal products used to facilitate penile erection in man a series of studies were carried out of the resistance arteries of the human penis, obtained from patients submitted to penile prosthesis implantation.
(§2) Specimens of human cavernous bodies of the penis were obtained from patients with impotence while these were intervened for prosthetic implantation, as described previously (Gupta et al.; Br. J. Pharmacol., 116: 2201, 1995). The tissues were deposited in M-400 solution (pH 7.4; 400 mOsm/kg. Composition in w/v: 4.19% manitole, 0.2% KH2PO4, 0.97% K2HPO4.3 H2O, 0.11% KCl and 0.08% NaHCO3) at 4° C. at the moment of explant and were transported to the laboratory to be used within the following 16 h.
(§3) The resistance arteries of the penis, helicine arteries (with a luminal diameter of 150-400 μm), which are terminal branches of the deep arteries of the penis, were dissected carefully removing the surrounding trabecular tissue and were cut into 2 mm long arterial segments that were arranged on two wires of 40 μm diameter in a Halpern-Mulvany myograph (J.P. Trading, Aarhus, Denmark) to record […]. […] The arteries were contracted with 1 μM of noradrenaline and their relaxation responses were assessed after adding to the cavities increasing amounts of the different compounds. […]

[2] = tested on: nitrergic terminations in resistance arteries of the human penis; assay: Relaxation of human penile resistance arteries induced by transmural electrical stimulation of nitrergic terminations (myograph)
Method: as §1, §2, §3

[3] = tested on: resistance arteries of the human penis; assay: Relaxation of noradrenaline-contracted human penile resistance arteries induced by sildenaphyl (myograph); conditions: 10 μM; arteries contracted with 1 μM noradrenaline; FIG. 2
Method: as §1, §2, §3

[4] = patients; variable in different patients; cited from earlier work

SMILES	effect on the relaxation produced by different concentrations of sodium nitroprussiate (SNP) [1]	effect on the effects of 10 nM of sildenaphyl on the relaxation produced by electrical stimulation ([2]; 10 μM combined with 10 nM sildenaphyl, increasing frequencies, FIG. 4)	effect on the relaxation produced by electrical stimulation at increasing frequencies of the nitrergic terminations ([2]; 10 μM, TES 0.5, 1, 2 and 6 Hz, FIG. 3)	effect on the relaxation produced by different concentrations of sildenaphyl [3]	therapeutic response [4] [%]
O=S(=O)([O-])c1cc(O)ccc1O.O=S(=O)([O-])c1cc(O)ccc1O.[Ca+2] [Calcium dobesylate, Calcium 2,5-dihidroxybenzenosulphonate]	increases, in a statistically significant manner, the relaxation	increases, in a statistically significant manner, the effects of 10 nM of sildenaphyl	increases, in a statistically significant manner, the relaxation	increases, in a statistically significant manner, the relaxation	
CCCc1nn(C)c2c(=O)[nH]c(-c3cc(S(=O)(=O)N4CCN(C)CC4)ccc3OCC)nc12 [sildenaphyl]					≤ 50
